Reference: PubChem BioAssay AID248 (DTP/NCI, 2004)
Several values for one entry are separate records, joined by “and”; a condition that tells them apart may be missing. Equal values may be shown once. Inconclusive results and toxic doses are left out.

System: L1210 leukemia ip in BDF1 mice, survival T/C
Test: NCI In Vivo Anticancer Drug Screen. Data for tumor model L1210 Leukemia (intraperitoneal) in B6D2F1 (BDF1) mice
Settings: endpoint: mean survival time, higher = longer survival
Procedure, shortened: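 Transplanted-tumor mice were given test agent; controls received vehicle only. Survival readings from the two groups were divided (treated over control).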

[1] = dose: 30.0 mg/kg/injection, schedule: Q01DX Z (ip), vehicle: saline
[2] = dose: 50.0 mg/kg/injection, schedule: Q01DX001 (ip), vehicle: saline
[3] = dose: 100.0 mg/kg/injection, schedule: Q01DX001 (ip), vehicle: saline
[4] = dose: 100.0 mg/kg/injection, schedule: Q01DX009 (ip), vehicle: saline with Tween-80
[5] = dose: 100.0 mg/kg/injection, schedule: Q04DX003 (ip), vehicle: saline with Tween-80
[6] = dose: 200.0 mg/kg/injection, schedule: Q04DX003 (ip), vehicle: saline with Tween-80

`CCOC(=O)c1ccc(N=NN(CCF)CCF)cc1` was tested, and the T/C (dose: 10.0 mg/kg/injection, schedule: Q01DX Z (ip), vehicle: saline) was 95 % of control, the T/C [1] was 94 % of control and the T/C (dose: 100.0 mg/kg/injection, schedule: Q01DX Z (ip), vehicle: saline) was 89 % of control. The T/C (dose: 300.0 mg/kg/injection, schedule: Q01DX Z (ip), vehicle: saline) was 95 % of control.
`CC[C@]12CN3CCc4c([nH]c5ccccc45)[C@@](C(=O)OC)(c4cc5c(cc4OC)N(C)[C@H]4[C@@](O)(C(=O)OC)[C@H](OC(C)=O)[C@]6(CC)C=CCN7CC[C@]54[C@@H]76)CC(C3)[C@H]1O2` (stereo partly drawn) was tested, and the T/C (dose: 0.37 mg/kg/injection, schedule: Q01DX009 (ip), vehicle: saline) was 108 % of control, the T/C (dose: 0.75 mg/kg/injection, schedule: Q01DX009 (ip), vehicle: Klucel (hydroxypropylcellulose) (HPC)) was 100 % of control and the T/C (dose: 1.5 mg/kg/injection, schedule: Q01DX002 (ip), vehicle: saline) was 108 % of control. The T/C (dose: 1.5 mg/kg/injection, schedule: Q01DX009 (ip), vehicle: Klucel (hydroxypropylcellulose) (HPC)) was 105 % of control, the T/C (dose: 1.5 mg/kg/injection, schedule: Q01DX009 (ip), vehicle: saline) was 97 % of control and 108 % of control and 114 % of control and the T/C (dose: 3.0 mg/kg/injection, schedule: Q01DX002 (ip), vehicle: saline) was 115 % of control. The T/C (dose: 3.0 mg/kg/injection, schedule: Q01DX009 (ip), vehicle: Klucel (hydroxypropylcellulose) (HPC)) was 110 % of control, the T/C (dose: 6.0 mg/kg/injection, schedule: Q01DX002 (ip), vehicle: saline) was 117 % of control and the T/C (dose: 6.0 mg/kg/injection, schedule: Q01DX009 (ip), vehicle: Klucel (hydroxypropylcellulose) (HPC)) was 107 % of control. The T/C (dose: 12.0 mg/kg/injection, schedule: Q01DX009 (ip), vehicle: Klucel (hydroxypropylcellulose) (HPC)) was 115 % of control, the T/C (dose: 12.0 mg/kg/injection, schedule: Q01DX009 (ip), vehicle: saline) was 95 % of control and the T/C (dose: 16.5 mg/kg/injection, schedule: Q04DX003 (ip), vehicle: saline with Tween-80) was 106 % of control. For the same molecule, the T/C (dose: 37.5 mg/kg/injection, schedule: Q04DX003 (ip), vehicle: saline) was 94 % of control.
`O=C(O)C(c1ccccc1)(c1ccccc1)c1ccccc1` was tested, and the T/C [2] was 101 % of control, the T/C [3] was 106 % of control and the T/C (dose: 200.0 mg/kg/injection, schedule: Q01DX001 (ip), vehicle: saline) was 103 % of control.
`COc1cc(OC)c2c(c1)-n1cccc1C2=O` was tested, and the T/C (dose: 100.0 mg/kg/injection, schedule: Q04DX002 (ip), vehicle: Klucel (hydroxypropylcellulose) (HPC)) was 101 % of control, the T/C (dose: 200.0 mg/kg/injection, schedule: Q04DX002 (ip), vehicle: Klucel (hydroxypropylcellulose) (HPC)) was 104 % of control and the T/C (dose: 400.0 mg/kg/injection, schedule: Q04DX002 (ip), vehicle: Klucel (hydroxypropylcellulose) (HPC)) was 93 % of control.
`Nc1nc(N)c(-c2ccc(Cl)cc2)c(CCc2ccc(NC(=O)CBr)cc2)n1` was tested, and the T/C [2] was 116 % of control and the T/C [3] was 110 % of control.
`NS(=O)(=O)c1ccc(NC(=S)NC(=O)/C=C/c2ccccc2)cc1` was tested, and the T/C (dose: 100.0 mg/kg/injection, schedule: Q01DX009 (sc), vehicle: olive oil, sesame oil, peanut oil) was 107 % of control, the T/C (dose: 100.0 mg/kg/injection, schedule: Q04DX003 (sc), vehicle: olive oil, sesame oil, peanut oil) was 107 % of control and the T/C (dose: 200.0 mg/kg/injection, schedule: Q01DX009 (sc), vehicle: olive oil, sesame oil, peanut oil) was 113 % of control. The T/C (dose: 200.0 mg/kg/injection, schedule: Q04DX003 (sc), vehicle: olive oil, sesame oil, peanut oil) was 97 % of control, the T/C (dose: 400.0 mg/kg/injection, schedule: Q01DX009 (sc), vehicle: olive oil, sesame oil, peanut oil) was 104 % of control and the T/C (dose: 400.0 mg/kg/injection, schedule: Q04DX003 (sc), vehicle: olive oil, sesame oil, peanut oil) was 103 % of control.
With `O=C(Oc1ccc(O)cc1)c1ccccc1` the T/C (dose: 25.6 mg/kg/injection, schedule: Q04DX002 (ip), vehicle: saline) was 88 % of control, the T/C (dose: 64.0 mg/kg/injection, schedule: Q04DX002 (ip), vehicle: saline) was 95 % of control and the T/C (dose: 160.0 mg/kg/injection, schedule: Q04DX002 (ip), vehicle: saline) was 92 % of control. For the same molecule, the T/C (dose: 400.0 mg/kg/injection, schedule: Q04DX002 (ip), vehicle: saline) was 92 % of control.
For `O=C1C2=C(NC1(c1ccccc1)c1ccccc1)c1ccccc1C2`, the T/C (dose: 50.0 mg/kg/injection, schedule: Q01DX009 (ip), vehicle: Klucel (hydroxypropylcellulose) (HPC)) was 101 % of control, the T/C (dose: 100.0 mg/kg/injection, schedule: Q01DX009 (ip), vehicle: Klucel (hydroxypropylcellulose) (HPC)) was 105 % of control and the T/C (dose: 200.0 mg/kg/injection, schedule: Q01DX009 (ip), vehicle: Klucel (hydroxypropylcellulose) (HPC)) was 97 % of control.
With `O=C1C=C(c2ccccc2)C(O)(c2ccccc2)/C1=C/c1ccccc1` (stereo not drawn) the T/C (dose: 6.25 mg/kg/injection, schedule: Q04DX002 (ip), vehicle: saline with Tween-80) was 100 % of control, the T/C (dose: 12.5 mg/kg/injection, schedule: Q04DX002 (ip), vehicle: saline with Tween-80) was 92 % of control and the T/C (dose: 25.0 mg/kg/injection, schedule: Q04DX002 (ip), vehicle: saline with Tween-80) was 92 % of control.
For `O=C(Nc1ccc(C2=NCCN2)cc1)Nc1cccc(NC(=S)Nc2ccc(C3=NCCN3)cc2)c1`, the T/C (dose: 1.88 mg/kg/injection, schedule: Q01DX Z (ip), vehicle: saline) was 95 % of control, the T/C (dose: 3.75 mg/kg/injection, schedule: Q01DX Z (ip), vehicle: saline) was 103 % of control and the T/C (dose: 7.5 mg/kg/injection, schedule: Q01DX Z (ip), vehicle: saline) was 113 % of control. The T/C (dose: 15.0 mg/kg/injection, schedule: Q01DX Z (ip), vehicle: saline) was 150 % of control, the T/C (dose: 15.0 mg/kg/injection, schedule: Q01DX Z (oral), vehicle: saline) was 97 % of control and the T/C [1] was 150 % of control. The T/C (dose: 30.0 mg/kg/injection, schedule: Q01DX Z (oral), vehicle: saline) was 100 % of control, the T/C (dose: 60.0 mg/kg/injection, schedule: Q01DX Z (oral), vehicle: saline) was 97 % of control and the T/C (dose: 120.0 mg/kg/injection, schedule: Q01DX Z (oral), vehicle: saline) was 107 % of control.
`C=C1N(C)c2ccc(Cl)cc2C1(C)C` was tested, and the T/C (dose: 50.0 mg/kg/injection, schedule: Q01DX009 (ip), vehicle: saline with Tween-80) was 102 % of control, the T/C [4] was 98 % of control and the T/C [5] was 94 % of control. For the same molecule, the T/C [6] was 96 % of control.
In the case of `Cc1ccc(S(=O)(=O)N(CCCBr)c2ccc(C3(CCl)OCCO3)cc2)cc1`, the T/C (dose: 100.0 mg/kg/injection, schedule: Q01DX001 (ip), vehicle: Klucel (hydroxypropylcellulose) (HPC)) is reported as 91 % of control, the T/C (dose: 200.0 mg/kg/injection, schedule: Q01DX001 (ip), vehicle: Klucel (hydroxypropylcellulose) (HPC)) is reported as 91 % of control and the T/C (dose: 400.0 mg/kg/injection, schedule: Q01DX001 (ip), vehicle: Klucel (hydroxypropylcellulose) (HPC)) is reported as 91 % of control.
With `CC(=S)Nc1ccc2ccccc2c1` the T/C [4] was 94 % of control, the T/C [5] was 101 % of control and the T/C (dose: 200.0 mg/kg/injection, schedule: Q01DX009 (ip), vehicle: saline with Tween-80) was 94 % of control. The T/C [6] was 104 % of control, the T/C (dose: 400.0 mg/kg/injection, schedule: Q01DX009 (ip), vehicle: saline with Tween-80) was 109 % of control and the T/C (dose: 400.0 mg/kg/injection, schedule: Q04DX003 (ip), vehicle: saline with Tween-80) was 101 % of control.
In the case of `CC(C)(C)c1ccc(OC(=O)NCCCCCCNC(=O)Oc2ccc(C(C)(C)C)cc2)cc1`, the T/C (dose: 100.0 mg/kg/injection, schedule: Q01DX009 (ip), vehicle: other) is reported as 96 % of control, the T/C (dose: 200.0 mg/kg/injection, schedule: Q01DX009 (ip), vehicle: other) is reported as 91 % of control and the T/C (dose: 400.0 mg/kg/injection, schedule: Q01DX009 (ip), vehicle: other) is reported as 87 % of control.
`CN(C)N=Nc1ccc(C(=O)N/N=C/c2ccccc2)cc1` was tested, and the T/C (dose: 75.0 mg/kg/injection, schedule: Q04DX003 (ip), vehicle: Klucel (hydroxypropylcellulose) (HPC)) was 99 % of control, the T/C (dose: 150.0 mg/kg/injection, schedule: Q04DX003 (ip), vehicle: Klucel (hydroxypropylcellulose) (HPC)) was 97 % of control and the T/C (dose: 300.0 mg/kg/injection, schedule: Q04DX003 (ip), vehicle: Klucel (hydroxypropylcellulose) (HPC)) was 100 % of control.
For `O=C(O)C(Cl)(c1ccccc1)c1ccccc1`, the T/C (dose: 75.0 mg/kg/injection, schedule: Q01DX001 (ip), vehicle: other) was 94 % of control, the T/C (dose: 150.0 mg/kg/injection, schedule: Q01DX001 (ip), vehicle: other) was 101 % of control and the T/C (dose: 300.0 mg/kg/injection, schedule: Q01DX001 (ip), vehicle: other) was 100 % of control.
For `CSC(=S)NC#N`, the T/C (dose: 50.0 mg/kg/injection, schedule: Q01DX009 (ip), vehicle: saline) was 93 % of control, the T/C (dose: 100.0 mg/kg/injection, schedule: Q01DX009 (ip), vehicle: saline) was 93 % of control and the T/C (dose: 100.0 mg/kg/injection, schedule: Q04DX003 (ip), vehicle: saline) was 101 % of control. The T/C (dose: 200.0 mg/kg/injection, schedule: Q01DX009 (ip), vehicle: saline) was 89 % of control, the T/C (dose: 200.0 mg/kg/injection, schedule: Q04DX003 (ip), vehicle: saline) was 106 % of control and the T/C (dose: 400.0 mg/kg/injection, schedule: Q04DX003 (ip), vehicle: saline) was 98 % of control.
